One test has as its target T1, hM4 receptors (Homo sapiens, UniProt P08173).
T1 construct: expressed in transfected cells; host or cells: CHO cells
T1 sequence (P08173 1-479): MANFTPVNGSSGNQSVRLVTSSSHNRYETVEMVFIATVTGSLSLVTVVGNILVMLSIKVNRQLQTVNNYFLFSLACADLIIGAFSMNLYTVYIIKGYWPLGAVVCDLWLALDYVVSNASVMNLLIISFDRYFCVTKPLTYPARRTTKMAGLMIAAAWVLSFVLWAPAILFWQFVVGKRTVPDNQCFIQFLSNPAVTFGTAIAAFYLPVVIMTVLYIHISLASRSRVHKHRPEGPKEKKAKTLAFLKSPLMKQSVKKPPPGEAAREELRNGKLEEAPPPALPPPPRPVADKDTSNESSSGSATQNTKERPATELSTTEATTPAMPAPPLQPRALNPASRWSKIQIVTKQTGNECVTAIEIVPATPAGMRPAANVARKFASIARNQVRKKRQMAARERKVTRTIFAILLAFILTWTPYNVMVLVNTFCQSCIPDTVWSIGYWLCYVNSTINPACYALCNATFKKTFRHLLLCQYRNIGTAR
As to the kind of experiment: Human M4 PAM PERK assay (CHO cells, TR-FRET, with EC20 acetylcholine). The test is classed as cell-based. The method, then:
(§1) Chinese hamster ovary (CHO) cells expressing either hM4 or rM4 receptors were frozen in assay ready vials (5×10^6 cells/vial) after bulking-up in culture. The day before an assay, vial(s) were thawed and cells seeded in 384 well white proxiplates at 1000/well for hM4 cells and at 2000/well for rM4 cells, in 10 μL of growth media (Hams/F12 with glutamax and 10% FCS) and incubated overnight at 37° C./5% CO2.
(§2) On the following morning, the growth media was removed by ‘flicking out’ over a bin, patting the inverted plate onto tissue, and then replacing with 10 μL of wash media (Hams/F12 with glutamax and 8 mM HEPES, NB: serum free). Then, the wash media was removed in the same way and replaced with 8 μL/well of the serum free media. Plates were then re-incubated for a further 4 hours at 37° C./5% CO2.
(§3) Compounds for testing were solubilized to 10 mM in DMSO and compound addition plates, consisting of ten-point concentration response curves (CRC) in duplicate points (10 μM top concentration, ½ log dilution series), were prepared by acoustic dispensing and the compound management group.
(§4) After the 4-hour incubation in serum free media, a 4 μL aliquot of the 3×compound solution containing an EC20 of acetylcholine (10 nM final concentration) was added to the cell plate using a 384 well plate to plate transfer. Then, the plate lid was replaced, and the cells incubated for 5 mins at 37° C./5% CO2. Following this final incubation, all cellular processes were stopped by the addition of 4 μL/well of lysis and blocking buffer and plates were incubated for 30 minutes at RT on an orbital shaker (gentle setting). Then, a final addition of 4 μL/well of antibody detection mix, containing both the Europium-Cryptate (donor) and d2 (acceptor) tagged detection components, was added followed by a further 2-hour incubation at RT, and then the plate was read using a TR-FRET (time resolved fluorescence resonance energy transfer) based protocol.
(In general: Time-resolved FRET reads energy transfer from a long-lived donor to a nearby acceptor.)

A further test deals with T2, rM4 receptors (Rattus norvegicus, UniProt P08485).
T2 construct: expressed in transfected cells; host or cells: CHO cells
T2 sequence (P08485 1-478): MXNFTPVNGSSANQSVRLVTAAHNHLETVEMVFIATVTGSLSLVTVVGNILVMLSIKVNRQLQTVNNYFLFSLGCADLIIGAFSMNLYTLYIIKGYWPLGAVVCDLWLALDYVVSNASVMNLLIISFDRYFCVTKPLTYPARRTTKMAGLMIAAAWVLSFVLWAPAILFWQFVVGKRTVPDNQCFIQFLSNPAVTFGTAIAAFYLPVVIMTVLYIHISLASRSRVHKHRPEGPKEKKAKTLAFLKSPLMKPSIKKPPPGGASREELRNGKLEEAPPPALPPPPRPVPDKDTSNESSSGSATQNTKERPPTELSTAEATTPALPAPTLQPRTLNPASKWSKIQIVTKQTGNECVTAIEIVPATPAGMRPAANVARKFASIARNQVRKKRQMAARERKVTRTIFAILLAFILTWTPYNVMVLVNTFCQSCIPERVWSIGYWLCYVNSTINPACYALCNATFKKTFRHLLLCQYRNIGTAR
As to the kind of experiment: Rat M4 PAM PERK assay (CHO cells, TR-FRET, with EC20 acetylcholine). Type of test: cell-based. As to the method: as §1, §2, §3, §4

Structures are written as SMILES. Some results are limits rather than exact numbers.

For `Cc1c2c(n(C)c(=O)c1F)CN(C(=O)CC1CN(c3ccnc(C(F)(F)F)c3)C1)C2` [Compound I-84, 3-Fluoro-1,4-dimethyl-6-(2-(1-(2-(trifluoromethyl)pyridin-4-yl)azetidin-3-yl)acetyl)-1,5,6,7-tetrahydro-2H-pyrrolo[3,4-b]pyridin-2-one], the values for the EC50 on hM4 receptors and at rM4 receptors were less than 50 nM and 50 to 200 nM, respectively.
For the compound `Cc1c2c(n(C)c(=O)c1F)CN(C(=O)CC1CN(c3cccc(C(F)(F)F)c3F)C1)C2` [Compound I-86], the EC50 at hM4 receptors and at rM4 receptors was 200 to 1000 nM throughout.
As to `Cc1c2c(n(C)c(=O)c1F)CN(C(=O)CC1CN(c3cccc(F)c3F)C1)C2` [Compound I-87], the EC50 on hM4 receptors was less than 50 nM; on rM4 receptors, 50 to 200 nM.
`Cc1c2c(n(C)c(=O)c1F)CN(C(=O)CC1CN(c3ccc(F)c(C(F)(F)F)c3)C1)C2` [Compound I-89]: the EC50 at hM4 receptors and at rM4 receptors was 50 to 200 nM in each case.
With `Cc1c2c(n(CC(F)(F)F)c(=O)c1Cl)CN(C(=O)CC1CN(c3cccnc3)C1)C2` [Compound I-93, 3-Chloro-4-methyl-6-(2-(1-(pyridin-3-yl)azetidin-3-yl)acetyl)-1-(2,2,2-trifluoroethyl)-1,5,6,7-tetrahydro-2H-pyrrolo[3,4-b]pyridin-2-one], the EC50 on hM4 receptors and at rM4 receptors was 50 to 200 nM each time.
For `Cc1c2c(n(CC(F)(F)F)c(=O)c1Cl)CN(C(=O)CC1CN(c3ccccc3)C1)C2` [Compound I-94], the concentration for a half-maximal effect (EC50) at hM4 receptors and at rM4 receptors was 200 to 1000 nM throughout.
In the case of `Cc1c2c(n(CC(F)(F)F)c(=O)c1Cl)CN(C(=O)CC1CN(c3cncnc3)C1)C2` [Compound I-96], the concentration giving a half-maximal response (EC50) at hM4 receptors lay in the range of 50 to 200 nM; on rM4 receptors, 200 to 1000 nM.
The matching figures for `COc1c2c(n(C)c(=O)c1C)CN(C(=O)CC1CN(c3ccnc(C(F)(F)F)c3)C1)C2` [Compound I-97, 4-Methoxy-1,3-dimethyl-6-(2-(1-(2-(trifluoromethyl)pyridin-4-yl)azetidin-3-yl)acetyl)-1,5,6,7-tetrahydro-2H-pyrrolo[3,4-b]pyridin-2-one]: less than 50 nM and 200 to 1000 nM.
Taken in the same sequence, the figures for `COc1c2c(n(C)c(=O)c1C)CN(C(=O)CC1CN(c3ccncn3)C1)C2` [Compound I-98] were less than 50 nM and greater than 1000 nM.
As to `Cc1cc(=O)n(CC2CC2)c2c1CN(C(=O)CC1CN(c3ccnc(C(F)(F)F)c3)C1)C2` [Compound I-101, 1-(Cyclopropylmethyl)-4-methyl-6-(2-(1-(2-(trifluoromethyl)pyridin-4-yl)azetidin-3-yl)acetyl)-1,5,6,7-tetrahydro-2H-pyrrolo[3,4-b]pyridin-2-one], the EC50 on hM4 receptors and at rM4 receptors was 200 to 1000 nM each time.
For `Cc1cc(=O)n(C2CC2)c2c1CN(C(=O)CC1CN(c3ccnc(C(F)(F)F)c3)C1)C2` [Compound I-103, 1-Cyclopropyl-4-methyl-6-(2-(1-(2-(trifluoromethyl)pyridin-4-yl)azetidin-3-yl)acetyl)-1,5,6,7-tetrahydro-2H-pyrrolo[3,4-b]pyridin-2-one], the EC50 at hM4 receptors is 200 to 1000 nM; on rM4 receptors, greater than 1000 nM.
`CSc1c2c(n(C)c(=O)c1C)CN(C(=O)CC1CN(c3ccnc(C(F)(F)F)c3)C1)C2` [Compound I-104, 1,3-Dimethyl-4-(methylthio)-6-(2-(1-(2-(trifluoromethyl)pyridin-4-yl)azetidin-3-yl)acetyl)-1,5,6,7-tetrahydro-2H-pyrrolo[3,4-b]pyridin-2-one]: the EC50 at hM4 receptors is 200 to 1000 nM; at rM4 receptors, greater than 1000 nM.
As to `Cc1cc(=O)n(CC(F)(F)F)c2c1CN(C(=O)CC1CN(c3ccc(C(F)(F)F)cc3)C1)C2` [Compound I-105, 4-Methyl-1-(2,2,2-trifluoroethyl)-6-(2-(1-(4-(trifluoromethyl)phenyl)azetidin-3-yl)acetyl)-1,5,6,7-tetrahydro-2H-pyrrolo[3,4-b]pyridin-2-one], the EC50 at hM4 receptors was greater than 1000 nM; at rM4 receptors, 200 to 1000 nM.
`CCc1c(C)c2c(n(C)c1=O)CN(C(=O)CC1CN(c3ccnc(C(F)(F)F)c3)C1)C2` [Compound I-107, 3-Ethyl-1,4-dimethyl-6-(2-(1-(2-(trifluoromethyl)pyridin-4-yl)azetidin-3-yl)acetyl)-1,5,6,7-tetrahydro-2H-pyrrolo[3,4-b]pyridin-2-one]: the EC50 was 50 to 200 nM on hM4 receptors and greater than 1000 nM on rM4 receptors.
On to `Cc1c2c(n(C)c(=O)c1C(F)(F)F)CN(C(=O)CC1CN(c3cccnc3)C1)C2` [Compound I-108, 1,4-Dimethyl-6-(2-(1-(pyridin-3-yl)azetidin-3-yl)acetyl)-3-(trifluoromethyl)-1,5,6,7-tetrahydro-2H-pyrrolo[3,4-b]pyridin-2-one], for which the concentration giving a half-maximal response (EC50) is 50 to 200 nM at hM4 receptors and greater than 1000 nM at rM4 receptors.
Turning to `Cc1c2c(n(C)c(=O)c1C1CC1)CN(C(=O)CC1CN(c3ccnc(C(F)(F)F)c3)C1)C2` [Compound I-109, 3-Cyclopropyl-1,4-dimethyl-6-(2-(1-(2-(trifluoromethyl)pyridin-4-yl)azetidin-3-yl)acetyl)-1,5,6,7-tetrahydro-2H-pyrrolo[3,4-b]pyridin-2-one], the half-maximal effective concentration (EC50) is 50 to 200 nM on hM4 receptors and 200 to 1000 nM at rM4 receptors.
Consider `Cc1c2c(n(C)c(=O)c1Br)CN(C(=O)CC1CN(c3ccnc(C(F)(F)F)c3)C1)C2` [Compound I-110, 3-Bromo-1,4-dimethyl-6-(2-(1-(2-(trifluoromethyl)pyridin-4-yl)azetidin-3-yl)acetyl)-1,5,6,7-tetrahydro-2H-pyrrolo[3,4-b]pyridin-2-one], for which the concentration giving a half-maximal response (EC50) at hM4 receptors was less than 50 nM; on rM4 receptors, 200 to 1000 nM.
Consider `Cc1c2c(n(C)c(=O)c1C#N)CN(C(=O)CC1CN(c3ccnc(C(F)(F)F)c3)C1)C2` [Compound I-111, 1,4-Dimethyl-2-oxo-6-(2-(1-(2-(trifluoromethyl)pyridin-4-yl)azetidin-3-yl)acetyl)-2,5,6,7-tetrahydro-1H-pyrrolo[3,4-b]pyridine-3-carbonitrile], for which the EC50 on hM4 receptors was in the range of 50 to 200 nM; at rM4 receptors, 200 to 1000 nM.
With `Cc1cc2c(n(C)c1=O)CN(C(=O)CC1CN(c3ccnc(C(F)(F)F)c3)C1)C2` [Compound I-112, 1,3-Dimethyl-6-(2-(1-(2-(trifluoromethyl)pyridin-4-yl)azetidin-3-yl)acetyl)-1,5,6,7-tetrahydro-2H-pyrrolo[3,4-b]pyridin-2-one], the half-maximal effective concentration (EC50) on hM4 receptors is 50 to 200 nM; on rM4 receptors, greater than 1000 nM.
For the compound `Cc1cc(=O)n(C)c2c1C(C)N(C(=O)CC1CN(c3ccnc(C(F)(F)F)c3)C1)C2` (stereo not shown) [Compound I-114], the values for the EC50 at hM4 receptors and on rM4 receptors were less than 50 nM and 50 to 200 nM, respectively.

Usually EC50 stands for the concentration that produces a half-maximal response.
